Test results reported in paper PMC6089346 (Journal of the American Chemical Society, 2015).

Legend:
human PARG [1] = target: human PARG (Homo sapiens, UniProt Q86W56, E756N); experiment: fluorescence polarization direct binding
human PARG [2] = target: human PARG (Homo sapiens, UniProt Q86W56, E755N); experiment: fluorescence polarization direct binding
Sequence of human PARG (Homo sapiens, UniProt Q86W56, E755N) (Q86W56 whole entry E755N): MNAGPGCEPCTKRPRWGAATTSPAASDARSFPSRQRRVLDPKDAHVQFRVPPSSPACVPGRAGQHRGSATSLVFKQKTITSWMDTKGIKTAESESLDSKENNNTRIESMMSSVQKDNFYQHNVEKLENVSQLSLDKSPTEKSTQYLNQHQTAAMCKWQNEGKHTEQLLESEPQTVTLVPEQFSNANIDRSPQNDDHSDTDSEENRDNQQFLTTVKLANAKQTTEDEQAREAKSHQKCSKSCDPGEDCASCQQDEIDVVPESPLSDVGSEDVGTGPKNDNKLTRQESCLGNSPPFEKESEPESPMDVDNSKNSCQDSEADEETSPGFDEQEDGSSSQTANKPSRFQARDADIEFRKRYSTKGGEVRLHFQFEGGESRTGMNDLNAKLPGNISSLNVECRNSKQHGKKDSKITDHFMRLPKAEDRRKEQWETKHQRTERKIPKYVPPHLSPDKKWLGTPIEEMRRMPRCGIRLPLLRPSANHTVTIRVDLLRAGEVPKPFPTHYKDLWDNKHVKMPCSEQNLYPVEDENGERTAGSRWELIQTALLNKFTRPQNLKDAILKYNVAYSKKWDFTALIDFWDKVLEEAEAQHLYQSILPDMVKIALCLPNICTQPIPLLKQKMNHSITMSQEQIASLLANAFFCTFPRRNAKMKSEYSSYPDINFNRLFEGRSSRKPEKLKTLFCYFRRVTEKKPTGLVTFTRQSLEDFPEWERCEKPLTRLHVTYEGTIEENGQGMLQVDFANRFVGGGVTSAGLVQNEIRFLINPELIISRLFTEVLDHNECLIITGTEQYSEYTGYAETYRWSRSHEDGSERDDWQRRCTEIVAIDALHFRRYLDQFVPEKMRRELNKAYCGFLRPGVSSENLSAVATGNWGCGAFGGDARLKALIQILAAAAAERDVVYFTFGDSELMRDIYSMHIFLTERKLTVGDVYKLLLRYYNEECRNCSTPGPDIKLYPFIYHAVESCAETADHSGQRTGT

Sequence of human PARG (Homo sapiens, UniProt Q86W56, E756N) (Q86W56 whole entry E756N): as the sequence (Q86W56 whole entry E755N) above, with N755E, E756N counted along it

Kd (human PARG [1]): 83 ± 7 nM | Kd (human PARG [2]): 208 ± 14 nM
Substance: Cy3 ADP-ribose dimer [compound 22]
